Tests used:
[1] = biological target: Recombinant G2019S-LRRK2 protein (Homo sapiens (Human), UniProt Q5S007, G2019S); experiment: LRRK2 kinase activity, LanthaScreen TR-FRET assay (G2019S); format: biochemical; settings: LRRKtide 400 nM, 25 μM ATP, 60 min
In short: (§1)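 Recombinant human wild-type or G2019S LRRK2 phosphorylated fluorescein-labelled LRRKtide (ERM-based) with ATP and serially diluted compound for 60 min at room temperature.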

[2] = biological target: Recombinant wild type LRRK2 protein (Homo sapiens (Human), UniProt Q5S007); experiment: LRRK2 kinase activity, LanthaScreen TR-FRET assay (wild type); format: biochemical; settings: LRRKtide 400 nM, 25 μM ATP, 60 min; read-out: LRRK2 WT IC50
Chain of Recombinant wild type LRRK2 protein (Q5S007 whole entry): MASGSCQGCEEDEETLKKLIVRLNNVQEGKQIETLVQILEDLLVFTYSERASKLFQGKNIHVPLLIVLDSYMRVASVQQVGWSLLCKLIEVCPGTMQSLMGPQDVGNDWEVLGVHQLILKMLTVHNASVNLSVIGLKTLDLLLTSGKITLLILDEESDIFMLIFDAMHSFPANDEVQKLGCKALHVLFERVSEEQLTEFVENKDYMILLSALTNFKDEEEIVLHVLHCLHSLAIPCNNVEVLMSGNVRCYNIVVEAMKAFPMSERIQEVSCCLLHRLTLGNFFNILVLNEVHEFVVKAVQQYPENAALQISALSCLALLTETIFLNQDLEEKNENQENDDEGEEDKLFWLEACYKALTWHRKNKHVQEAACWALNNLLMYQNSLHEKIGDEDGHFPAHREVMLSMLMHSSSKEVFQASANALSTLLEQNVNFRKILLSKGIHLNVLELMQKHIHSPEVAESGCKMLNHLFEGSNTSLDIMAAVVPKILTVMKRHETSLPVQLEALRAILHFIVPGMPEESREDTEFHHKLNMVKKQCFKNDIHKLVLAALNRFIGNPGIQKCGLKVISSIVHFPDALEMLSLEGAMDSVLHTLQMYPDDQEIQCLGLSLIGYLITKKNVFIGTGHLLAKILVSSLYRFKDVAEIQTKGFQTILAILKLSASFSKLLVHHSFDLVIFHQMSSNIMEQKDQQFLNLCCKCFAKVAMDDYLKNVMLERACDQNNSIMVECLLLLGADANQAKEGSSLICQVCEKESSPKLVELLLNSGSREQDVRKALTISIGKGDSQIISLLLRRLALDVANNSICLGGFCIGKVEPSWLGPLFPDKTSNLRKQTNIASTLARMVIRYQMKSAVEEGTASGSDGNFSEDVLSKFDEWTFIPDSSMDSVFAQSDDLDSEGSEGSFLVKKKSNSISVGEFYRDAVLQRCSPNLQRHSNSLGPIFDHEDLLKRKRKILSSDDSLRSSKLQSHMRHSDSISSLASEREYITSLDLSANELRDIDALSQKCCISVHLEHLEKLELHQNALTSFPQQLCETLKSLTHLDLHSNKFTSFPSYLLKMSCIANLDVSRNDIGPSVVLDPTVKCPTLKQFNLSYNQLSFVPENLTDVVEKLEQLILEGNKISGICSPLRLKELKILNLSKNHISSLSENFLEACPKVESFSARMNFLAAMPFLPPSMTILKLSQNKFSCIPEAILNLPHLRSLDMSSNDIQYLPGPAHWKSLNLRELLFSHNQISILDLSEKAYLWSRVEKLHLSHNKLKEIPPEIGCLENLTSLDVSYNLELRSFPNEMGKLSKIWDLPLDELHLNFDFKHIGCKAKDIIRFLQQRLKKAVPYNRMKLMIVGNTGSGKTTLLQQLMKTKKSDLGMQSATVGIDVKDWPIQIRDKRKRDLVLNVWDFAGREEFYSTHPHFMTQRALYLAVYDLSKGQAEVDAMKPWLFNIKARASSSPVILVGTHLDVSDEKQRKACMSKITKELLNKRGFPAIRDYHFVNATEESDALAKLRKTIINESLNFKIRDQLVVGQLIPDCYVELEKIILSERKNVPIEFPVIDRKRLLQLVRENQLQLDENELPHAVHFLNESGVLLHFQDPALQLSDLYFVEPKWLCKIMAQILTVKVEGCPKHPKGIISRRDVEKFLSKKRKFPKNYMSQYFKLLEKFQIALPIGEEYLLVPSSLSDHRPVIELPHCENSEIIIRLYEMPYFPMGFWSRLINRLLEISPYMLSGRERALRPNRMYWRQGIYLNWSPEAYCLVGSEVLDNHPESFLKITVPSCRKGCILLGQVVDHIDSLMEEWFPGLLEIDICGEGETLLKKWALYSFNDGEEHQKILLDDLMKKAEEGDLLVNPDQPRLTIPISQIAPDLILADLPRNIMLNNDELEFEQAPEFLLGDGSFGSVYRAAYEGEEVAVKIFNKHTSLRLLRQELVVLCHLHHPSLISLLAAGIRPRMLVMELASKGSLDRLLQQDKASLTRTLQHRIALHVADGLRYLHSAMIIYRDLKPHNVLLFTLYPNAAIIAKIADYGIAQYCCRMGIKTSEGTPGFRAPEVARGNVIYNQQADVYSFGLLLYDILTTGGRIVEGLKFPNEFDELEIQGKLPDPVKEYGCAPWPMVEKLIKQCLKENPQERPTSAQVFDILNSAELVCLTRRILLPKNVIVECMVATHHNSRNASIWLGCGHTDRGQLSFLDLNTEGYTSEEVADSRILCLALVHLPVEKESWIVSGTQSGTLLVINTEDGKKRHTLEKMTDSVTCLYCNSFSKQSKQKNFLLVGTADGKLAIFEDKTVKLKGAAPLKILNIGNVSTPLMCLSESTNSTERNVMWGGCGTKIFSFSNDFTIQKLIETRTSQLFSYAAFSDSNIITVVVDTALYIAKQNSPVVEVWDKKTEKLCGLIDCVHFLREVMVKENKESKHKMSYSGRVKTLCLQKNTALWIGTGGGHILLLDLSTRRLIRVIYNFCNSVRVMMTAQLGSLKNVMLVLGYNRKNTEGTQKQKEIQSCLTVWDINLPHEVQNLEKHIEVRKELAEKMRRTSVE
In short: as §1

Chain of Recombinant G2019S-LRRK2 protein (Q5S007 whole entry G2019S): as the sequence (Q5S007 whole entry) above, with G2019S counted along it

Structure (SMILES) | IC50 [1] [nM] | IC50 [2] [nM]
Cc1cc(C#N)cnc1C(=O)Nc1ccc2[nH]nc(-c3ccnc(C#N)c3)c2c1 [Example 113, 5-Cyano-N-(3-(2-cyanopyridin-4-yl)-1H-indazol-5-yl)-3-methylpicolinamide] | < 100 | 100 to 1000
Cc1cc(C#N)cnc1C(=O)Nc1ccc2[nH]nc(-c3ccccn3)c2c1 [Example 114, 5-Cyano-3-methyl-N-(3-(pyridin-2-yl)-1H-indazol-5-yl)picolinamide] | 100 to 1000 | 1000 to 10000
Cc1cc(C#N)cnc1C(=O)Nc1ccc2[nH]nc(-c3ccnc(N4C[C@H](C)O[C@@H](C)C4)c3)c2c1 [Example 115, 5-Cyano-N-(3-(2-((2S,6S)-2,6-dimethylmorpholino)pyridin-4-yl)-1H-indazol-5-yl)-3-methylpicolinamide] | < 100 | < 100
N#Cc1cnc(C(=O)Nc2ccc3[nH]nc(-c4ccoc4)c3c2)c2sccc12 [Example 116, 4-Cyano-N-(3-(furan-3-yl)-1H-indazol-5-yl)thieno[2,3-c]pyridine-7-carboxamide] | 100 to 1000 | 1000 to 10000
Cc1cc(C#N)cnc1C(=O)Nc1ccc2[nH]nc(-c3ccnc(N4C[C@H](C)C[C@H](C)C4)c3)c2c1 [Example 117, 5-Cyano-N-(3-(2-((3R,5S)-3,5-dimethylpiperidin-1-yl)pyridin-4-yl)-1H-indazol-5-yl)-3-methylpicolinamide] | < 100 | 100 to 1000
Cc1cc(C#N)cnc1C(=O)Nc1ccc2[nH]nc(-c3ccnc(N4C[C@@H](C)O[C@@H](C)C4)c3)c2c1 [Example 118, 5-Cyano-N-(3-(2-((2S,6R)-2,6-dimethylmorpholino)pyridin-4-yl)-1H-indazol-5-yl)-3-methylpicolinamide] | < 100 | < 100
Cc1cc(C#N)cnc1C(=O)Nc1ccc2[nH]nc(-c3cccc(N4C[C@@H](C)O[C@@H](C)C4)c3)c2c1 [Example 119, 5-Cyano-N-(3-(3-((2S,6R)-2,6-dimethylmorpholino)phenyl)-1H-indazol-5-yl)-3-methylpicolinamide] | < 100 | 100 to 1000
N#Cc1ccc(F)c(C(=O)Nc2ccc3[nH]nc(-c4ccoc4)c3c2)c1F [Example 120, 3-Cyano-2,6-difluoro-N-(3-(furan-3-yl)-1H-indazol-5-yl)benzamide] | < 100 | < 100
Cc1cc(C#N)cnc1C(=O)Nc1ccc2[nH]nc(-c3cncc(Cl)c3)c2c1 [Example 121, N-(3-(5-Chloropyridin-3-yl)-1H-indazol-5-yl)-5-cyano-3-methylpicolinamide] | < 100 | 100 to 1000
N#Cc1ccc(F)c(C(=O)Nc2ccc3[nH]nc(-c4ccoc4)c3c2)c1 [Example 122, 5-Cyano-2-fluoro-N-(3-(furan-3-yl)-1H-indazol-5-yl)benzamide] | < 100 | < 100
Cc1cc(C#N)cnc1C(=O)Nc1ccc2[nH]nc(-c3cnn(C)c3C)c2c1 [Example 123, 5-Cyano-N-(3-(1,5-dimethyl-1H-pyrazol-4-yl)-1H-indazol-5-yl)-3-methylpicolinamide] | < 100 | 100 to 1000
Cn1cc(C#N)nc1C(=O)Nc1ccc2[nH]nc(-c3ccoc3)c2c1 [Example 124, 4-Cyano-N-(3-(furan-3-yl)-1H-indazol-5-yl)-1-methyl-1H-imidazole-2-carboxamide] | < 100 | < 100
N#Cc1ccc(O)c(C(=O)Nc2ccc3[nH]nc(-c4ccoc4)c3c2)c1 [Example 125, 5-Cyano-N-(3-(furan-3-yl)-1H-indazol-5-yl)-2-hydroxybenzamide] | 100 to 1000 | 100 to 1000
Cc1cc(C#N)cnc1C(=O)Nc1ccc2[nH]nc(-n3ccnc3)c2c1 [Example 126, N-(3-(1H-Imidazol-1-yl)-1H-indazol-5-yl)-5-cyano-3-methylpicolinamide] | < 100 | 100 to 1000
N#Cc1cccc(C(=O)Nc2ccc3[nH]nc(-c4ccoc4)c3c2)n1 [Example 127, 6-Cyano-N-(3-(furan-3-yl)-1H-indazol-5-yl)picolinamide] | < 100 | < 100
Cc1ccc(C#N)c(F)c1C(=O)Nc1ccc2[nH]nc(-c3ccoc3)c2c1 [Example 128, 3-Cyano-2-fluoro-N-(3-(furan-3-yl)-1H-indazol-5-yl)-6-methylbenzamide] | < 100 | < 100
Cc1ncc(-c2n[nH]c3ccc(NC(=O)c4ncc(C#N)cc4C)cc23)o1 [Example 129, 5-Cyano-3-methyl-N-(3-(2-methyloxazol-5-yl)-1H-indazol-5-yl)picolinamide] | < 100 | < 100
Cc1cc(C#N)cnc1C(=O)Nc1ccc2[nH]nc(-c3cc(C#N)cs3)c2c1 [Example 130, 5-Cyano-N-(3-(4-cyanothiophen-2-yl)-1H-indazol-5-yl)-3-methylpicolinamide] | < 100 | < 100
Cc1cc(C#N)cnc1C(=O)Nc1ccc2[nH]nc(-c3ccc(C#N)s3)c2c1 [Example 131, 5-Cyano-N-(3-(5-cyanothiophen-2-yl)-1H-indazol-5-yl)-3-methylpicolinamide] | < 100 | 100 to 1000

Structure (SMILES) | IC50 [1] [nM] | IC50 [2] [nM]
N#Cc1ccnc(C(=O)Nc2ccc3[nH]nc(-c4ccoc4)c3c2)n1 [Example 132, 4-Cyano-N-(3-(furan-3-yl)-1H-indazol-5-yl)pyrimidine-2-carboxamide] | < 100 | < 100
Cc1c(C(=O)Nc2ccc3[nH]nc(-c4ccoc4)c3c2)n[nH]c1C#N [Example 133, 5-Cyano-N-(3-(furan-3-yl)-1H-indazol-5-yl)-4-methyl-1H-pyrazole-3-carboxamide] | < 100 | 100 to 1000
Cc1c(C#N)ccc(F)c1C(=O)Nc1ccc2[nH]nc(-c3ccoc3)c2c1 [Example 134, 3-Cyano-6-fluoro-N-(3-(furan-3-yl)-1H-indazol-5-yl)-2-methylbenzamide] | < 100 | < 100
Cc1cc(C#N)cnc1C(=O)Nc1ccc2[nH]nc(NC(=O)c3ccccc3)c2c1 [Example 135, N-(3-Benzamido-1H-indazol-5-yl)-5-cyano-3-methylpicolinamide] | 100 to 1000 | 1000 to 10000
Cc1cc(C#N)cnc1C(=O)Nc1ccc2[nH]nc(-n3cccn3)c2c1 [Example 136, N-(3-(1H-Pyrazol-1-yl)-1H-indazol-5-yl)-5-cyano-3-methylpicolinamide] | 100 to 1000 | 1000 to 10000
Cc1n[nH]c(C#N)c1C(=O)Nc1ccc2[nH]nc(-c3ccoc3)c2c1 [Example 137, 5-Cyano-N-(3-(furan-3-yl)-1H-indazol-5-yl)-3-methyl-1H-pyrazole-4-carboxamide] | < 100 | < 100
N#Cc1cnc(C(=O)Nc2ccc3[nH]nc(-c4ccoc4)c3c2)c(Br)c1 [Example 138, 3-Bromo-5-cyano-N-(3-(furan-3-yl)-1H-indazol-5-yl)picolinamide] | < 100 | < 100
Cc1cc(C#N)cnc1C(=O)Nc1ccc2[nH]nc(-c3ccc(Cl)s3)c2c1 [Example 139, N-(3-(5-Chlorothiophen-2-yl)-1H-indazol-5-yl)-5-cyano-3-methylpicolinamide] | < 100 | 1000 to 10000
Cc1ncc(-c2n[nH]c3ccc(NC(=O)c4ncc(C#N)cc4C)cc23)s1 [Example 140, 5-Cyano-3-methyl-N-(3-(2-methylthiazol-5-yl)-1H-indazol-5-yl)picolinamide] | < 100 | < 100
Cc1ccc(-c2n[nH]c3ccc(NC(=O)c4ncc(C#N)cc4C)cc23)o1 [Example 141, 5-Cyano-3-methyl-N-(3-(5-methylfuran-2-yl)-1H-indazol-5-yl)picolinamide] | < 100 | < 100
N#Cc1ccc(C(=O)Nc2ccc3[nH]nc(-c4ccoc4)c3c2)c2ncccc12 [Example 142, 5-Cyano-N-(3-(furan-3-yl)-1H-indazol-5-yl)quinoline-8-carboxamide] | < 100 | 100 to 1000
Cc1cc(C#N)cnc1C(=O)Nc1cc(F)c2[nH]nc(-c3ccoc3)c2c1 [Example 143, 5-Cyano-N-(7-fluoro-3-(furan-3-yl)-1H-indazol-5-yl)-3-methylpicolinamide] | < 100 | 100 to 1000
N#Cc1ccnc(C(=O)Nc2ccc3[nH]nc(-c4ccoc4)c3c2)c1Cl [Example 144, 3-Chloro-4-cyano-N-(3-(furan-3-yl)-1H-indazol-5-yl)picolinamide] | < 100 | < 100
Cc1nc(C#N)cnc1C(=O)Nc1ccc2[nH]nc(-c3ccoc3)c2c1 [Example 145, 5-Cyano-N-(3-(furan-3-yl)-1H-indazol-5-yl)-3-methylpyrazine-2-carboxamide] | < 100 | < 100
Cc1cc(C#N)cnc1C(=O)Nc1ccc2[nH]nc(-c3cnoc3)c2c1 [Example 146, 5-Cyano-N-(3-(isoxazol-4-yl)-1H-indazol-5-yl)-3-methylpicolinamide] | < 100 | 100 to 1000
Cc1ncc(C#N)nc1C(=O)Nc1ccc2[nH]nc(-c3ccoc3)c2c1 [Example 147, 6-Cyano-N-(3-(furan-3-yl)-1H-indazol-5-yl)-3-methylpyrazine-2-carboxamide] | < 100 | < 100
Cc1ccc(C#N)nc1C(=O)Nc1ccc2[nH]nc(-c3ccoc3)c2c1 [Example 148, 6-Cyano-N-(3-(furan-3-yl)-1H-indazol-5-yl)-3-methylpicolinamide] | < 100 | < 100
CCc1c(C#N)ccnc1C(=O)Nc1ccc2[nH]nc(-c3ccoc3)c2c1 [Example 149, 4-Cyano-3-ethyl-N-(3-(furan-3-yl)-1H-indazol-5-yl)picolinamide] | < 100 | 100 to 1000
C#Cc1cc(C#N)cnc1C(=O)Nc1ccc2[nH]nc(-c3ccoc3)c2c1 [Example 150] | 100 to 1000 | 100 to 1000

Source: patent publication US11427558B1, “Indazoles and azaindazoles as LRRK2 inhibitors” (ESCAPE Bio, Inc., priority 2019, dated 2022)
